The values below come from article PMC8648852, “Pyrazoline derivatives as promising novel antischistosomal agents” (Scientific Reports, 2021).

Broadly, the EC50 is the midpoint of the concentration-response curve. A word on the melting point: it is the temperature, or range, at which the solid turns liquid. One may read the CC50 as the concentration giving 50% cytotoxicity.

One data set has as its system S. mansoni adult worm. The data set is described as follows: In vitro antischistosomal assay (viability of ex vivo adult worms). The data set is classed as cell-based, Schistosoma mansoni. The settings on record: for EC50: 72 h, ex vivo adult schistosomes, brackets = 95% confidence interval; for Time until all parasites were dead: 50 μM; for Antiparasitic activity in initial screen: 50 µM, after 72 h, adult worms. The protocol: For biological screening, S. mansoni adult parasites were isolated from the mouse infection model (parasite ex vivo) and all compounds were initially screened at 50 µM. The gold-standard antiparasitic compound praziquantel was used as a positive control and DMSO at 0.5% v/v (representing the highest concentration of solvent) served as a negative control. […] For the remaining compounds tested, no EC50 values could be calculated due to lack of activity at 50 μM. […] In tandem, our findings confirm that pyrazolines have a potent antiparasitic activity. Indeed, few compounds in the literature are active at low concentrations for review see[11],[19]. According to criteria established by the World Health Organization (WHO) for antiparasitic hits, leads, and drug candidates, at the start of a screening campaign a compound should inhibit mobility of helminths in vitro at 10 μg/mL[20], commonly ranging from 30 to 40 μM. Thus, the anthelminthic activity of pyrazolines surpasses criteria established by the WHO.
Adult schistosomes (BH strain) were isolated from infected mice and cultured in RPMI medium + 10% fetal calf serum and 100 U/mL penicillin and 100 μg/mL streptomycin in a 24-well culture plate (Corning, New York, NY, USA) containing one pair of parasites per well at 37 °C and 5% CO2 (Panasonic Healthcare, Sakata, Oizumi-machi, Japan)[38],[39]. For antischistosomal assay, compounds were dissolved in DMSO (final concentration of 0.5% v/v). Each drug concentration was tested at least in triplicate, and the experiments were repeated three times. The initial concentration of the pyrazolines and praziquantel was 50 μM and 3 μM, respectively, which was serially diluted in medium with twofold dilutions to give six concentrations[40],[41]. The negative control worms were assayed in RPMI 1640 medium and RPMI 1640 with 0.5% DMSO. Parasites were monitored daily at 24, 48 and 72 h under a stereomicroscope (Leica Microsystems EZ4E, Wetzlar, Germany) and an inverted microscope (BEL Engineering INV 100, Monza, MB, Italy). Egg production was evaluated daily as previously described. Parasite viability was averaged and 50% effective concentrations (EC50) were calculated using GraphPad Prism software[24],[43].

Data set [1] is described as follows: Cytotoxicity assay (MTT), SH-SY5Y cells. The note with it: human, SH-SY5Y cells (human neuroblastoma); SH-SY5Y cells, 72 h, MTT. The format is cell-based, human. As for the experimental part:
(§1) The selectivity index (SI) of a compound is a widely accepted parameter used to express a drug’s in vitro efficacy. Therefore, the cytotoxic effect of these six pyrazolines (16, 18, 19, 21, 22 and 23) was evaluated using a monkey cell line (Vero) and a human cell line (SH-SY5Y). Cells were incubated with each compound at a range of concentrations for determination of cytotoxic concentrations 50% (CC50). […] With the EC50 data collected for schistosomes as well as the CC50 for animal and human cells, the selectivity indices (SI) were determined for each of the pyrazolines tested (Table 1). […] A SI value ≥ 10 is in accordance with the criteria defined by the WHO for antiparasitic hits, leads, and drug candidates. […] Comparatively, the SI values achieved with pyrazolines exceeded those obtained for other relevant heterocyclic compounds with antischistosomal properties[21],[22]. Although the SI values recorded for pyrazolines were more than 10 times below those for the reference drug praziquantel, a SI value ≥ 10 fulfills and exceeds the criteria established by the WHO for potential compounds as anthelmintic agents. The cytotoxicity of compounds was tested against Vero cells (African green monkey kidney cells obtained from the American Type Culture Collection, ATCC; Manassas, VA, USA) and SH-SY5Y cells (human neuroblastoma obtained from Banco de Células do Rio de Janeiro, BCRJ, RJ, Brazil). Cells was cultured in DMEM medium supplemented with 10% fetal calf serum, penicillin (100 U/mL) and streptomycin (100 µg/mL) and 2 mM of L-glutamine at 37 °C and in a 5% CO2 humidified incubator (Panasonic). The DMEM contained 1 or 4 mg/mL glucose for Vero and SH-SY5Y cells, respectively. Cytotoxicity assay was performed as previously described[25],[26]. Briefly, cells were seeded in 96-well plates (Corning) in DMEM medium and incubated with twofold serial drug starting at 200 μM following a 24 h adhesion period at 37 °C in 5% CO2. After 72 h, MTT was added and incubation was continued for another 3 h. The plate was then read using spectrophotometer (Epoch Microplate Spectrophotometer, BioTek Instruments, Winooski, VT, USA) at 595 nm. The assay was conducted in duplicate and repeated three times. Values were expressed as percentage of the control and 50% cytotoxic concentration (CC50) values were calculated. The selectivity indices (SI) of tested compounds were calculated by dividing CC50 values obtained on mammalian cells with EC50 values determined on S. mansoni.

The test system of the next data set is SH-SY5Y cells. Nature of the data set: Cytotoxicity assay (MTT), SH-SY5Y cells. The format is cell-based, human. The settings on record: CC50 (SH-SY5Y) divided by EC50 (S. mansoni). The protocol:
as §1

A further data set relates to Vero cells. The data set is described as follows: Cytotoxicity assay (MTT), Vero cells. The note with it: CC50 (Vero) divided by EC50 (S. mansoni). The data set is classed as cell-based, African green monkey. As for the experimental part: as §1
Data set [2] in a line: Cytotoxicity assay (MTT), Vero cells. The data set is classed as cell-based, African green monkey. The note with it: African green monkey, Vero cells (African green monkey kidney cells); Vero cells, 72 h, MTT; brackets = 95% confidence interval. The protocol:
as §1

In the data set on S. mansoni adult worm (Schistosoma mansoni), `CCCCOc1ccc(C2CC(c3ccccc3)=NN2C(N)=O)cc1` (centres unmarked) [Compound 15, 5-(4-butoxyphenyl)-4,5-dihydro-3-phenylpyrazole-1-carboxamide] displayed an EC50 of more than 50 µM.

As for `CCCCCCCCCCCCOc1ccc(C2CC(c3ccccc3)=NN2C(N)=O)cc1` (centres unmarked) [Compound 17, 5-(4-(dodecyloxy)phenyl)-4,5-dihydro-3-phenylpyrazole-1-carboxamide], the melting point was in the range of 94.8 to 97.9 °C. In addition, the EC50 in the data set with S. mansoni adult worm (Schistosoma mansoni) was more than 50 µM.

With `CCCCCCCCCCOc1ccc(C2CC(c3ccc(F)cc3)=NN2C(N)=O)cc1` (centres unmarked) [Compound 18, 5-(4-(decyloxy)phenyl)-3-(4-fluorophenyl)-4,5-dihydropyrazole-1-carboxamide], the CC50 at 72 h was more than 200 µM in data set [1] and 159 µM in data set [2]. The “Human cells SI (selectivity index)” value with SH-SY5Y cells is more than 13.7. In addition, the “Monkey cells SI (selectivity index)” value in the data set with Vero cells amounted to 10.9. In addition, the “Time until all parasites were dead” value with S. mansoni adult worm was not above 24 h. In the data set on S. mansoni adult worm, the “Antiparasitic activity in initial screen” value is listed as “showed antiparasitic activity”. Moreover, the figures for the EC50 in the data set with S. mansoni adult worm (Schistosoma mansoni) and in the data set with S. mansoni adult worm were less than 20 µM and 14.6 µM, respectively.

`NC(=O)N1N=C(c2ccc(F)cc2)CC1c1ccc(Br)cc1` (centres unmarked) [Compound 20, 5-(4-bromophenyl)-3-(4-fluorophenyl)-4,5-dihydropyrazole-1-carboxamide] registered a melting point of 176 to 178 °C. The molecule further gave an EC50 in the data set on S. mansoni adult worm (Schistosoma mansoni) of more than 50 µM.

Take `CN(C)c1ccc(C2CC(c3ccc(F)cc3)=NN2C(N)=O)cc1` (centres unmarked) [Compound 21, 5-(4-(dimethylamino)phenyl)-3-(4-fluorophenyl)-4,5-dihydropyrazole-1-carboxamide]: the CC50 at 72 h in data set [1] and in data set [2] was more than 200 µM each time. For the same molecule, in the data set with SH-SY5Y cells, the “Human cells SI (selectivity index)” value is more than 10.1. The “Monkey cells SI (selectivity index)” value in the data set with Vero cells was more than 10.1. Besides, the “Time until all parasites were dead” value with S. mansoni adult worm came to 48 h. Also, the “Antiparasitic activity in initial screen” value with S. mansoni adult worm is recorded as “showed antiparasitic activity”. The results for the EC50 with S. mansoni adult worm (Schistosoma mansoni) and in the data set on S. mansoni adult worm were less than 20 µM and 19.8 µM, respectively.

As to `NC(=O)N1N=C(c2ccc(F)cc2)CC1c1ccc(Cl)cc1` (centres unmarked) [Compound 22, 5-(4-chlorophenyl)-3-(4-fluorophenyl)-4,5-dihydropyrazole-1-carboxamide], in data set [1], the CC50 at 72 h is more than 200 µM. The “Human cells SI (selectivity index)” value in the data set on SH-SY5Y cells is reported as more than 32.2. Further, the “Monkey cells SI (selectivity index)” value in the data set on Vero cells is 21.6. In data set [2], this molecule displayed a half-maximal cytotoxic concentration (CC50) at 72 h of 134 µM. The “Death of all worms within 24 h” value in the data set with S. mansoni adult worm (25 μM, 24 h) was “death of all worms”. Further, in the data set with S. mansoni adult worm, the “Time until all parasites were dead” value was not above 24 h, the “Antiparasitic activity in initial screen” value was “showed antiparasitic activity” and the EC50 amounted to 6.2 µM. The EC50 in the data set on S. mansoni adult worm (Schistosoma mansoni) is less than 10 µM.

Consider `CCCCCCCCOc1ccc(C2CC(c3ccccc3)=NN2C(N)=S)cc1` (centres unmarked) [Compound 24, 4,5-dihydro-5-(4-(octyloxy)phenyl)-3-phenylpyrazole-1-carbothioamide], for which the melting point is 90.4 to 92.1 °C. Moreover, the EC50 in the data set with S. mansoni adult worm (Schistosoma mansoni) was more than 50 µM.

Take `CCCCCCCCCOc1ccc(C2CC(c3ccccc3)=NN2C(N)=S)cc1` (centres unmarked) [Compound 25, 4,5-dihydro-5-(4-(nonyloxy)phenyl)-3-phenylpyrazole-1-carbothioamide]: the melting point lay within 86.4 to 88.2 °C. The same molecule showed an EC50 in the data set on S. mansoni adult worm (Schistosoma mansoni) of more than 50 µM.

The molecule `CCCCCCCCCCOc1ccc(C2CC(c3ccccc3)=NN2C(N)=S)cc1` (centres unmarked) [Compound 26, 5-(4-(decyloxy)phenyl)-4,5-dihydro-3-phenylpyrazole-1-carbothioamide] registered a melting point of 96.2 to 98.9 °C. The molecule further displayed an EC50 in the data set on S. mansoni adult worm (Schistosoma mansoni) of more than 50 µM.

`CCCCCCCCCCCCOc1ccc(C2CC(c3ccccc3)=NN2C(N)=S)cc1` (centres unmarked) [Compound 27, 5-(4-(dodecyloxy)phenyl)-4,5-dihydro-3-phenylpyrazole-1-carbothioamide] showed a melting point of 94.2 °C. In the data set with S. mansoni adult worm (Schistosoma mansoni), this molecule returned an EC50 of more than 50 µM.

`CCCCCCCCCCCCCCOc1ccc(C2CC(c3ccccc3)=NN2C(N)=S)cc1` (centres unmarked) [Compound 28, 4,5-dihydro-3-phenyl-5-(4-(tetradecyloxy)phenyl)pyrazole-1-carbothioamide] had a melting point of 97 to 99.2 °C. This molecule also had an EC50 in the data set on S. mansoni adult worm (Schistosoma mansoni) of more than 50 µM.

`CCCCCCCCCOc1ccc(C2CC(c3ccc(F)cc3)=NN2C(N)=S)cc1` (centres unmarked) [Compound 29, 3-(4-fluorophenyl)-4,5-dihydro-5-(4-(nonyloxy)phenyl)pyrazole-1-carbothioamide] returned a melting point of 113 to 114 °C. This molecule showed an EC50 in the data set with S. mansoni adult worm (Schistosoma mansoni) of more than 50 µM.

Regarding `CCCCCCCCCCOc1ccc(C2CC(c3ccc(F)cc3)=NN2C(N)=S)cc1` (centres unmarked) [Compound 30, 3-(4-fluorophenyl)-4,5-dihydro-5-(4-(decyloxy)phenyl)pyrazole-1-carbothioamide], the melting point is 105.5 to 108.4 °C. The molecule also returned an EC50 with S. mansoni adult worm (Schistosoma mansoni) of more than 50 µM.

In turn, `CCCCCCCCCCCCCCOc1ccc(C2CC(c3ccc(F)cc3)=NN2C(N)=S)cc1` (centres unmarked) [Compound 31, 3-(4-fluorophenyl)-4,5-dihydro-5-(4-(tetradecyloxy)phenyl)pyrazole-1-carbothioamide] had a melting point of 92.2 to 94.6 °C. Moreover, the EC50 in the data set with S. mansoni adult worm (Schistosoma mansoni) was more than 50 µM.

As for `Cc1ccc(-c2cc(-c3ccc(F)cc3)[nH]n2)cc1` [Compound 32, 5-(4-fluorophenyl)-3-(4-methylphenyl)-1H-pyrazole], the EC50 in the data set on S. mansoni adult worm (Schistosoma mansoni) was more than 50 µM.

For `Fc1ccc(-c2cc(-c3ccc(Br)cc3)n[nH]2)cc1` [Compound 33, 3-(4-bromophenyl)-5-(4-fluorophenyl)-1H-pyrazole], the melting point is 217 to 219 °C. Also, the concentration for a half-maximal effect (EC50) with S. mansoni adult worm (Schistosoma mansoni) is more than 50 µM.

Molecule `Fc1ccc(-c2cc(-c3ccc(Cl)cc3)n[nH]2)cc1` [Compound 34, 3-(4-chlorophenyl)-5-(4-fluorophenyl)-1H-pyrazole] had an EC50 with S. mansoni adult worm (Schistosoma mansoni) of more than 50 µM.

For `O=C(C1CCCCC1)N1CC(=O)N2CCc3ccccc3C2C1` (centres unmarked) [PZQ, praziquantel, reference compound], the CC50 at 72 h in data set [1] and in data set [2] was more than 200 µM each time. The same molecule registered an EC50 in the data set on S. mansoni adult worm (Schistosoma mansoni) of 0.93 µM.
